pIC50: −log10 of the molar value. Numbered stars: 1 amine (or outer) side, 2 acyl side, 3 side chain; on linkers, the order of the positions; unused ones are H or OH. Bridge positions count the residues as written; N and C are the ends. Square brackets hold non-standard residues; d marks the D form. Side chains are listed from the residue outwards. Peptide text beside a SMILES is read from it. * marks the point of attachment. Dip = N[C@H](C(=O)O)C(c1ccccc1)c1ccccc1; Hag = O=C([C@H](CCC=[*:3])N[*:1])[*:2]; Palmitoyl = CCCCCCCCCCCCCCCC(=O)*; tBuAla = CC(C)(C)C[C@H](N)C(=O)O; β3hF = N[C@H](CC(=O)O)Cc1ccccc1; NMeL = CN[C@@H](CC(C)C)C(=O)O; Isovaleryl = CC(C)CC(=O)*; Ahx = NCCCCCC(=O)O
Experiments:
[1] = target: T1, human ferroportin (SLC40A1) (Homo sapiens, UniProt Q9NP59); assay: FPN activity assay: internalization/degradation of ferroportin-GFP in stably transfected HEK293 cells (decrease in GFP fluorescence); type: cell-based; settings: compound incubated at least 18 hours
T1 sequence (Q9NP59 1-571): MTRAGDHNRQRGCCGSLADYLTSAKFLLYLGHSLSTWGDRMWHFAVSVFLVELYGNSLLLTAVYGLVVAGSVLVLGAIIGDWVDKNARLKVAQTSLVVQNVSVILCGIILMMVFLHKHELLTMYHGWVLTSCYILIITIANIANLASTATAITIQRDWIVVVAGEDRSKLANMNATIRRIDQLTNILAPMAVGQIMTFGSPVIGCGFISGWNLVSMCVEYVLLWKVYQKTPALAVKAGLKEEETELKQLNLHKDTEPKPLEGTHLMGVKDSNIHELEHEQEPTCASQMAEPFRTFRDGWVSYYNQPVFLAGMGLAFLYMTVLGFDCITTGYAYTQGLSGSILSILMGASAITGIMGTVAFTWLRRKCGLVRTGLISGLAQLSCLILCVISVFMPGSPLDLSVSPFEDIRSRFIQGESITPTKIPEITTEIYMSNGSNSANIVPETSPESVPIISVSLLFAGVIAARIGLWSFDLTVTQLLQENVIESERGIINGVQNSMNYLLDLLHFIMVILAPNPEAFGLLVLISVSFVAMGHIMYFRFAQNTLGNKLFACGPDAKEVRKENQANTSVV
Method in brief: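 HEK293 cells stably expressing human ferroportin C-terminally fused to GFP were exposed to peptides for at least 18 h, at most 24 h. Internalization/degradation read as loss of GFP fluorescence; EC50 derived. Retro-inverse mini-hepcidin peptides used as control standards.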

[2] = target: T2, ferroportin (Homo sapiens, UniProt Q9NP59); assay: T47D cell-based ferroportin internalization assay in presence of 0.5% mouse serum albumin (MSA); settings: T47D cells
T2 sequence (Q9NP59 1-571): T1 sequence (Q9NP59 1-571)
Protocol: The potency of the peptides in causing ferroportin internalization was evaluated in a T47D cell-based assay. […] In this internalization assay, the potency of the test peptides was evaluated in presence of serum albumin which is the main protein component in the blood. T47D cells were maintained in RPMI media (containing required amount of fetal bovine serum) and regularly sub-cultured. In preparation for the assay, the cells were seeded in 96-well plates at a density of 80-100 k cells per well in 100 ul volume and allowed to rest overnight. On the next day, test peptides were first prepared in dilution series (10-point series, starting concentration of ˜5 μM, typically 3-4×fold dilution steps), all with 0.5% mouse serum albumin (MSA purified from mouse serum; Sigma, A3139). The test peptide dilution series were allowed to incubate at room temperature for 30 min. Then the media was aspirated from the 96-well cell plate and test peptide dilution series were added. After 1 hr incubation, the media with test peptides was aspirated out and AF647-conjugated detection peptide was added at fixed concentration of 200 nM. The AF647-conjugated detection peptide was previously verified to bind to ferroportin and cause its internalization. The cells were washed again after a 2 hr incubation in preparation for flow cytometry analysis. The Median Fluorescence Intensity (MFI) of the AF647-positive population was measured (after removing dead cells and non-singlets from the analysis). The MFI values were used to generate a dose-response curve and obtain IC50 potencies for the test peptides. The IC50 potencies were calculated by using 4-parameter non-linear fitting function in Graphpad Prism (Table 6A).

SMILES	pIC50 [1]	pIC50 [2]
CCCCCCCCCCCCCCCC(=O)NCCCCCC(=O)NCCCC[C@H](NC(=O)C[C@H](Cc1ccccc1)NC(=O)[C@@H]1CCC=CCC[C@H](NC(=O)CC(C)C)C(=O)N[C@@H]([C@@H](C)O)C(=O)N[C@@H](Cc2c[nH]cn2)C(=O)N[C@@H](C(c2ccccc2)c2ccccc2)C(=O)N2CCC[C@H]2C(=O)N[C@@H](C)C(=O)N[C@@H]([C@@H](C)CC)C(=O)N1)C(=O)N[C@@H](C)C(N)=O [Compd 48] (Isovaleryl-[Hag]TH[Dip]PAI[Hag][β3hF]K([Ahx-Palmitoyl])A-NH2; staple 1-8)	7.00 to 8.00	7.00 to 8.00
CCCCCCCCCCCCCCCC(=O)NCCCCCC(=O)NCCCC[C@H](NC(=O)C[C@H](Cc1ccccc1)NC(=O)[C@@H]1CCC=CCC[C@H](NC(=O)CC(C)C)C(=O)N(C)[C@@H]([C@@H](C)O)C(=O)N[C@@H](Cc2c[nH]cn2)C(=O)N[C@@H](C(c2ccccc2)c2ccccc2)C(=O)N2CCC[C@H]2C(=O)N[C@@H](C)C(=O)N[C@@H]([C@@H](C)CC)C(=O)N1)C(=O)N[C@H](CCCCN)C(N)=O [Compd 49]	7.00 to 8.00	6.30 to 7.00
CCCCCCCCCCCCCCCC(=O)NCCCCCC(=O)NCCCC[C@H](NC(=O)C[C@H](Cc1ccccc1)NC(=O)[C@@H]1CCC=CCC[C@H](NC(=O)CC(C)C)C(=O)N[C@@H]([C@@H](C)O)C(=O)N[C@@H](Cc2c[nH]cn2)C(=O)N[C@@H](C(c2ccccc2)c2ccccc2)C(=O)N2CCC[C@H]2C(=O)N(C)[C@@H](C)C(=O)N[C@@H]([C@@H](C)CC)C(=O)N1)C(=O)N[C@H](CCCCN)C(N)=O [Compd 52]	7.00 to 8.00	7.00 to 8.00
CCCCCCCCCCCCCCCC(=O)NCCCCCC(=O)NCCCC[C@H](NC(=O)C[C@H](Cc1ccccc1)NC(=O)[C@@H]1CCC=CCC[C@H](NC(=O)CC(C)C)C(=O)N[C@@H]([C@@H](C)O)C(=O)N[C@@H](Cc2c[nH]cn2)C(=O)N[C@@H](C(c2ccccc2)c2ccccc2)C(=O)N2CCC[C@H]2C(=O)N[C@@H](C)C(=O)N(C)[C@@H](CC(C)C)C(=O)N1)C(=O)N[C@H](CCCCN)C(N)=O [Compd 53] (Isovaleryl-[Hag]TH[Dip]PA[NMeL][Hag][β3hF]K([Ahx-Palmitoyl])[dK]-NH2; staple 1-8)	6.30 to 7.00	7.00 to 8.00
CCCCCCCCCCCCCCCC(=O)NCCCCCC(=O)NCCCC[C@H](NC(=O)[C@H](Cc1ccccc1)N(C)C(=O)[C@@H]1CCC=CCC[C@H](NC(=O)CC(C)C)C(=O)N[C@@H]([C@@H](C)O)C(=O)N[C@@H](Cc2c[nH]cn2)C(=O)N[C@@H](C(c2ccccc2)c2ccccc2)C(=O)N2CCC[C@H]2C(=O)N[C@@H](C)C(=O)N[C@@H]([C@@H](C)CC)C(=O)N1)C(=O)N[C@H](CCCCN)C(N)=O [Compd 54]	7.00 to 8.00	6.30 to 7.00
CCCCCCCCCCCCCCCC(=O)NCCCCCC(=O)NCCCC[C@@H](C(=O)N[C@H](CCCCN)C(N)=O)N(C)C(=O)C[C@H](Cc1ccccc1)NC(=O)[C@@H]1CCC=CCC[C@H](NC(=O)CC(C)C)C(=O)N[C@@H]([C@@H](C)O)C(=O)N[C@@H](Cc2c[nH]cn2)C(=O)N[C@@H](C(c2ccccc2)c2ccccc2)C(=O)N2CCC[C@H]2C(=O)N[C@@H](C)C(=O)N[C@@H]([C@@H](C)CC)C(=O)N1 [Compd 55]	8.00 to 9.00	7.00 to 8.00
CCCCCCCCCCCCCCCC(=O)NCCCCCC(=O)NCCCC[C@H](NC(=O)C[C@H](Cc1ccccc1)NC(=O)[C@@H]1CCC=CCC[C@H](NC(=O)CC(C)C)C(=O)N[C@@H]([C@@H](C)O)C(=O)N[C@@H](Cc2c[nH]cn2)C(=O)N[C@@H](C(c2ccccc2)c2ccccc2)C(=O)N2CCC[C@H]2C(=O)N[C@@H](C)C(=O)N[C@@H]([C@@H](C)CC)C(=O)N1)C(=O)N(C)[C@H](CCCCN)C(N)=O [Compd 56]	8.00 to 9.00	7.00 to 8.00
CCCCCCCCCCCCCCCC(=O)NCCCCCC(=O)NCCCC[C@H](NC(=O)C[C@H](Cc1ccccc1)NC(=O)[C@@H]1CCC=CCC[C@H](NC(=O)CC(C)C)C(=O)N[C@@H]([C@@H](C)O)C(=O)N[C@@H](Cc2c[nH]cn2)C(=O)N[C@@H](C(c2ccccc2)c2ccccc2)C(=O)N2CCC[C@H]2C(=O)N[C@@H](CC(C)(C)C)C(=O)N[C@@H]([C@@H](C)CC)C(=O)N1)C(=O)N[C@H](CCCCN)C(N)=O [Compd 62] (Isovaleryl-[Hag]TH[Dip]P[tBuAla]I[Hag][β3hF]K([Ahx-Palmitoyl])[dK]-NH2; staple 1-8)	7.00 to 8.00	8.00 to 9.00
CCCCCCCCCCCCCCCC(=O)NCCCCCC(=O)NCCCC[C@H](NC(=O)C[C@H](Cc1ccccc1)NC(=O)[C@@H]1CCC=CCC[C@H](NC(=O)CC(C)C)C(=O)N[C@@H]([C@@H](C)O)C(=O)N[C@@H](Cc2c[nH]cn2)C(=O)N[C@@H](C(c2ccccc2)c2ccccc2)C(=O)N2CCC[C@H]2C(=O)N[C@@H](C)C(=O)N[C@@H](CC(C)(C)C)C(=O)N1)C(=O)N[C@H](CCCCN)C(N)=O [Compd 63] (Isovaleryl-[Hag]TH[Dip]PA[tBuAla][Hag][β3hF]K([Ahx-Palmitoyl])[dK]-NH2; staple 1-8)	8.00 to 9.00	8.00 to 9.00
CCCCCCCCCCCCCCCC(=O)NCCCCCC(=O)NCCCC[C@H](NC(=O)[C@H](CC(C)(C)C)NC(=O)[C@@H]1CCC=CCC[C@H](NC(=O)CC(C)C)C(=O)N[C@@H]([C@@H](C)O)C(=O)N[C@@H](Cc2c[nH]cn2)C(=O)N[C@@H](C(c2ccccc2)c2ccccc2)C(=O)N2CCC[C@H]2C(=O)N[C@@H](C)C(=O)N[C@@H]([C@@H](C)CC)C(=O)N1)C(=O)N[C@H](CCCCN)C(N)=O [Compd 64] (Isovaleryl-[Hag]TH[Dip]PAI[Hag][tBuAla]K([Ahx-Palmitoyl])[dK]-NH2; staple 1-8)	7.00 to 8.00	7.00 to 8.00
CCCCCCCCCCCCCCCC(=O)NCCCCCC(=O)NCCCC[C@H](NC(=O)C[C@H](Cc1ccccc1)NC(=O)[C@@H]1CCC=CCC[C@H](NC(=O)CC(C)C)C(=O)N[C@@H]([C@@H](C)O)C(=O)N[C@@H](Cc2c[nH]cn2)C(=O)N[C@@H](C(c2ccccc2)c2ccccc2)C(=O)N2CCC[C@H]2C(=O)N[C@@H](C)C(=O)N[C@@H]([C@@H](C)CC)C(=O)N1)C(=O)N[C@@H](CC(C)(C)C)C(N)=O [Compd 65]	7.00 to 8.00	8.00 to 9.00
CCCCCCCCCCCCCCCC(=O)NCCCCCC(=O)NCCCC[C@H](NC(=O)C[C@H](Cc1ccccc1)NC(=O)[C@@H]1CCCC=CCC[C@@H](NC(=O)CC(C)C)C(=O)N[C@@H]([C@@H](C)O)C(=O)N[C@@H](Cc2c[nH]cn2)C(=O)N[C@@H](C(c2ccccc2)c2ccccc2)C(=O)N2CCC[C@H]2C(=O)N[C@@H](C)C(=O)N[C@@H]([C@@H](C)CC)C(=O)N1)C(=O)N[C@H](CCCCN)C(N)=O [Compd 67]	8.00 to 9.00	7.00 to 8.00
CCCCCCCCCCCCCCCC(=O)NCCCCCC(=O)NCCCC[C@H](NC(=O)C[C@H](Cc1ccccc1)NC(=O)[C@@H]1CCC=CCC[C@@H](NC(=O)CC(C)C)C(=O)N[C@@H]([C@@H](C)O)C(=O)N[C@@H](Cc2c[nH]cn2)C(=O)N[C@@H](C(c2ccccc2)c2ccccc2)C(=O)N2CCC[C@H]2C(=O)N[C@@H](C)C(=O)N[C@@H]([C@@H](C)CC)C(=O)N1)C(=O)N[C@H](CCCCN)C(N)=O [Compd 68]	7.00 to 8.00	6.30 to 7.00
CCCCCCCCCCCCCCCC(=O)NCCCCCC(=O)NCCCC[C@H](NC(=O)C[C@H](Cc1ccccc1)NC(=O)[C@@H]1CCC=CCCC[C@@H](NC(=O)CC(C)C)C(=O)N[C@@H]([C@@H](C)O)C(=O)N[C@@H](Cc2c[nH]cn2)C(=O)N[C@@H](C(c2ccccc2)c2ccccc2)C(=O)N2CCC[C@H]2C(=O)N[C@@H](C)C(=O)N[C@@H]([C@@H](C)CC)C(=O)N1)C(=O)N[C@H](CCCCN)C(N)=O [Compd 69]	8.00 to 9.00	< 6.30
CCCCCCCCCCCCCCCC(=O)NCCCCCC(=O)NCCCC[C@H](NC(=O)C[C@H](Cc1ccccc1)NC(=O)[C@@H]1CCCC=CCCC[C@@H](NC(=O)CC(C)C)C(=O)N[C@@H]([C@@H](C)O)C(=O)N[C@@H](Cc2c[nH]cn2)C(=O)N[C@@H](C(c2ccccc2)c2ccccc2)C(=O)N2CCC[C@H]2C(=O)N[C@@H](C)C(=O)N[C@@H]([C@@H](C)CC)C(=O)N1)C(=O)N[C@H](CCCCN)C(N)=O [Compd 70]	7.00 to 8.00	8.00 to 9.00
